The record followed here is patent publication US9688702B2, “Alpha-amino boronic acid derivatives, selective immunoproteasome inhibitors” (Ares Trading S.A, priority 2011, dated 2017).

Assay [1] concerns the target Beta5 (purified human constitutive proteasome) (Homo sapiens, UniProt P28074). The experiment in a line: Determination of Beta5 activity (fluorescence intensity assay, Suc-LLVY-AMC). It counts as biochemical. The conditions noted are these: purified human constitutive proteasome 1.0 nM, 40 μM Suc-LLVY-AMC, 37° C. Here is the method: Measurement of Beta5 inhibition is performed in 384 well format based on fluorescence intensity assay.
Purified human constitutive proteasome (1.0 nM) and serial diluted compounds in DMSO (range of concentrations from 10 μM to 38 pM) or controls (0.5% DMSO) are incubated for 30 minutes at 37° C. in assay buffer containing 50 mM Tris pH 7.4 and 0.03% SDS. The reaction is initiated by the addition of the fluorogenic peptide substrate, Suc-LLVY-AMC (Bachem 1-1395), at a concentration of 40 μM. After 90 minutes of incubation at 37° C., fluorescence intensity is measured at λex=350 nm and λem=450 nm with a fluorescence reader (BMG Pherastar reader or equivalent).

The target in assay [2] is LMP7 (purified human immuno proteasome) (Homo sapiens, UniProt P28062). The experiment in a line: Determination of LMP7 activity (fluorescence intensity assay, Suc-LLVY-AMC). It counts as biochemical. The conditions noted are these: for IC50: purified human immuno proteasome 0.5 nM, 40 μM Suc-LLVY-AMC, 37° C. Here is the method:
Measurement of LMP7 inhibition is performed in 384 well format based on fluorescence intensity assay.
Purified human immuno proteasome (0.5 nM) and serial diluted compounds in DMSO (range of concentrations from 10 μM to 38 pM) or controls (0.5% DMSO) are incubated for 30 minutes at 37° C. in assay buffer containing 50 mM Tris pH 7.4 and 0.03% SDS. The reaction is initiated by the addition of the fluorogenic peptide substrate, Suc-LLVY-AMC (Bachem I-1395), at a concentration of 40 μM. After 90 minutes of incubation at 37° C., fluorescence intensity is measured at λex=350 nm and λem=450 nm with a fluorescence reader (BMG Pherastar reader or equivalent).
Purified human immuno proteasome (0.25 nM) and serial diluted compounds in DMSO (range of concentrations from 10 μM to 38 pM) or controls (0.5% DMSO) are incubated for 30 minutes at 37° C. in assay buffer containing 50 mM Tris pH 7.4 and 0.03% SDS. The reaction is initiated by the addition of the fluorogenic peptide substrate, Suc-LLVY-AMC (Bachem I-1395), at a concentration of 40 μM. After 90 minutes of incubation at 37° C., fluorescence intensity is measured at λex=350 nm and λem=450 nm with a fluorescence reader (BMG Pherastar reader or equivalent).

Bounds are passed on as bounds.

In general, IC50 refers to the concentration that inhibits the measured activity by half. On to `CCc1cccc(C[C@H](NC(=O)CCC(=O)c2cccc(-c3ccccc3)c2)B(O)O)c1` [Example 19, [(1R)-1-[(4-biphenyl-3-yl-4-oxobutanoyl)amino]-2-(3-ethylphenyl)ethyl]boronic acid], for which the IC50 lay within 0.5 to 5 µM in assay [1] and 0.05 to 0.5 µM in assay [2]. The “Selectivity LMP7 vs Beta5” value in assay [2] is on record as “++ (++: 10 < Selectivity < 30)”.

On to `O=C(CCC(=O)c1ccc(-c2ccccc2)cc1)N[C@@H](Cc1ccsc1)B(O)O` [Example 20, [(1R)-1-[(4-biphenyl-4-yl-4-oxobutanoyl)amino]-2-(3-thienyl)ethyl]boronic acid], for which the half-maximal inhibitory concentration (IC50) in assay [1] lay in the range of 0.5 to 5 µM. Moreover, in assay [2], the “Selectivity LMP7 vs Beta5” value is given as “+ (+: Selectivity < 10)” and the IC50 fell in the range of 0.05 to 0.5 µM.

Regarding `O=C(CCC(=O)c1ccc2ccccc2c1)N[C@@H](Cc1ccsc1)B(O)O` [Example 21, [(1R)-1-{[4-(2-naphthyl)-4-oxobutanoyl]amino}-2-(3-thienyl)ethyl]boronic acid], the half-inhibitory concentration (IC50) in assay [1] lay in the range of 0.5 to 5 µM. Also, in assay [2], the “Selectivity LMP7 vs Beta5” value is given as “++ (++: 10 < Selectivity < 30)” and the IC50 is 0.05 to 0.5 µM.

As for `O=C(CCC(=O)c1cccc(-c2ccccc2)c1)N[C@@H](Cc1ccsc1)B(O)O` [Example 22, [(1R)-1-[(4-biphenyl-3-yl-4-oxobutanoyl)amino]-2-(3-thienyl)ethyl]boronic acid], the half-inhibitory concentration (IC50) in assay [1] is 0.5 to 5 µM. Also, in assay [2], the “Selectivity LMP7 vs Beta5” value is “++ (++: 10 < Selectivity < 30)” and the half-maximal inhibitory concentration (IC50) was 0.05 to 0.5 µM.

Turning to `O=C(CCC(=O)c1cccc(-c2ccccc2)n1)N[C@@H](Cc1ccsc1)B(O)O` [Example 23, [(1R)-1-{[4-oxo-4-(6-phenylpyridin-2-yl)butanoyl]amino}-2-(3-thienyl)ethyl]boronic acid], the results for the IC50 in assay [1] and in assay [2] were 0.5 to 5 µM and 0.05 to 0.5 µM, respectively. Moreover, the “Selectivity LMP7 vs Beta5” value in assay [2] is “++ (++: 10 < Selectivity < 30)”.

In the case of `COc1ccc(C(=O)CCC(=O)N[C@@H](Cc2cccc(C(F)(F)F)c2)B(O)O)cc1` [Example 26, {(1R)-1-{[4-(4-methoxyphenyl)-4-oxobutanoyl]amino}-2-[3-(trifluoromethyl)phenyl]ethyl}boronic acid], in assay [1], the half-maximal inhibitory concentration (IC50) is > 5 µM. Besides, in assay [2], the “Selectivity LMP7 vs Beta5” value is on record as “+++ (+++: Selectivity > 30)” and the concentration for half-maximal inhibition (IC50) fell in the range of 0.05 to 0.5 µM.

In assay [1], `CCc1cccc(C[C@H](NC(=O)CCn2ncc3ccccc32)B(O)O)c1` [Example 28, ((1R)-2-(3-ethylphenyl)-1-{[3-(1H-indazol-1-yl)propanoyl]amino}ethyl)boronic acid] showed an IC50 of 0.5 to 5 µM. In assay [2], the “Selectivity LMP7 vs Beta5” value is reported as “++ (++: 10 < Selectivity < 30)” and the IC50 lay in the range of 0.05 to 0.5 µM.

On to `CCc1cccc(C[C@H](NC(=O)CCn2cnc3ccccc32)B(O)O)c1` [Example 29, [(1R)-1-{[3-(1H-benzimidazol-1-yl)propanoyl]amino}-2-(3-ethylphenyl)ethyl]boronic acid], for which the results for the IC50 in assay [1] and in assay [2] were 0.05 to 0.5 µM and < 0.05 µM, respectively. Moreover, the “Selectivity LMP7 vs Beta5” value in assay [2] is given as “++ (++: 10 < Selectivity < 30)”.

Regarding `CCc1cccc(C[C@H](NC(=O)CCn2c(=O)sc3ccccc32)B(O)O)c1` [Example 30, ((1R)-2-(3-ethylphenyl)-1-{[3-(2-oxo-1,3-benzothiazol-3(2H)-yl)propanoyl]amino}ethyl)boronic acid], the 50% inhibitory concentration (IC50) in assay [1] was 0.05 to 0.5 µM; in assay [2], < 0.05 µM. The “Selectivity LMP7 vs Beta5” value in assay [2] is reported as “++ (++: 10 < Selectivity < 30)”.

Turning to `CCc1cccc(C[C@H](NC(=O)CCn2nnc3ccccc32)B(O)O)c1` [Example 31, [(1R)-1-{[3-(1H-1,2,3-benzotriazol-1-yl)propanoyl]amino}-2-(3-ethylphenyl)ethyl]boronic acid], in assay [1], the IC50 lay within 0.05 to 0.5 µM. In assay [2], the “Selectivity LMP7 vs Beta5” value is listed as “++ (++: 10 < Selectivity < 30)” and the IC50 was < 0.05 µM.

Turning to `O=C(CCn1ncc2ccccc21)N[C@@H](Cc1ccsc1)B(O)O` [Example 32, [(1R)-1-{[3-(1H-indazol-1-yl)propanoyl]amino}-2-(3-thienyl)ethyl]boronic acid], the IC50 in assay [1] lay in the range of 0.05 to 0.5 µM. In assay [2], the “Selectivity LMP7 vs Beta5” value is recorded as “+ (+: Selectivity < 10)” and the IC50 fell in the range of 0.05 to 0.5 µM.
